The values that follow come from patent US8609650B2, “Bridged bicyclic aryl and bridged bicyclic heteroaryl substituted triazoles useful as Axl inhibitors” (Rigel Pharmaceuticals, Inc., priority 2006, dated 2013).

The IC50 is the midpoint of a concentration-inhibition curve. A higher IC50 goes with a need for much substance.

Structures are written as SMILES.

In this test the target is T1, Axl (Homo sapiens, UniProt P30530).
T1 construct: endogenous in cells; host or cells: HeLa cells
T1 sequence (P30530 26-894): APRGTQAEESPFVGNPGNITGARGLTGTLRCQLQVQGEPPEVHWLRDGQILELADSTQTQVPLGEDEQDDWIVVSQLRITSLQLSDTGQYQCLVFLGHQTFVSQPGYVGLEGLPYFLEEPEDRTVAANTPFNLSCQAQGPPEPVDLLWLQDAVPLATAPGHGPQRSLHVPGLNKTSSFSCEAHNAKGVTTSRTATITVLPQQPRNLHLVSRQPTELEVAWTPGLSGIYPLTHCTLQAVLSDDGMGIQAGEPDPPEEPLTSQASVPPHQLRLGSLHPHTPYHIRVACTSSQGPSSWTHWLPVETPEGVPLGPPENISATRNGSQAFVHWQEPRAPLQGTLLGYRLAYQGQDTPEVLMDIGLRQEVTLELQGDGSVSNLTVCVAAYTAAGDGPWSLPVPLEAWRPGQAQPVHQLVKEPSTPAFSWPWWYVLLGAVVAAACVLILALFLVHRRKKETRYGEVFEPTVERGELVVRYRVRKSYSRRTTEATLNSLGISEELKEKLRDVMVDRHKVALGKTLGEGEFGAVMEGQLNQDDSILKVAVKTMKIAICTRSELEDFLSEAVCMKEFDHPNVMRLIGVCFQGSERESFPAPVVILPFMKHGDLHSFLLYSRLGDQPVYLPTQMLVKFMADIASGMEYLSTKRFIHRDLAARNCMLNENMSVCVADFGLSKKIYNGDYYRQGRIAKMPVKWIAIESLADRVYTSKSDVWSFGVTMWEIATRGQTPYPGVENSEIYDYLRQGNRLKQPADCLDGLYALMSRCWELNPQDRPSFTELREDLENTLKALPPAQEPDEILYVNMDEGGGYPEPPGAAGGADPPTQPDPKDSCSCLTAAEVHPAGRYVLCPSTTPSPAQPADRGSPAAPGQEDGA
The experiment in a line: Phospho-Akt In-Cell Western Assay (ability to inhibit Axl activity). It counts as cell-based. The settings on record: Hela cells, stimulated by Axl-antibody cross-linking, phospho-Akt chemiluminescence normalized to relative cell number. Here is the method:
The compounds of the invention were tested in the following assay for their ability to inhibit Axl activity.
Phospho-Akt In-Cell Western Assay
• Cell culture plate: 96 well assay plate (Corning 3610), white, clear bottom, tissue-culture treated. • Cells: Hela cells. • Starvation medium: For Axl stimulation: 0.5% FCS (fetal calf serum) in DMEM, plus Axl/Fc (extracellular domain of AXL fused to immunoglobulin Fc region) (R&D, 154-AL) 500 ng/mL. • For EGF (epidermal growth factor) stimulation: 0.5% FCS in DMEM (Dulbecco's modified Eagles medium). • Poly-L-Lysine 0.01% solution (the working solution): 10 μg/ml, dilute In PBS (phosphate buffered saline). • Axl antibody cross-linking: • 1st: Mouse anti-Axl (R&D, MAB154). • 2nd: Biotin-SP-conjugated AffiniPure goat anti-mouse IgG (H+L) (Jackson ImmunoResearch #115-065-003). • Fixing buffer: 4% formaldehyde in PBS. • Wash buffer: 0.1% TritonX-100 in PBS. • Quenching buffer: 3% H2O2, 0.1% Azide in wash buffer, Azide and hydrogen peroxide (H2O2) are added fresh. • Blocking buffer: 5% BSA in TBST (tris buffered saline plus 0.1% Tween 20). • Primary antibody: Rabbit anti-human Phospho-Akt antibody (Cell Signaling 9271): 1×250 diluted in blocking buffer. • Secondary antibody: HRP (horse radish peroxidase)-conjugated Goat anti-Rabbit secondary, stock solution: Jackson ImmunoResearch (Goat anti-Rabbit HRP, #111-035-144) 1:1 diluted in glycerol, store at −20° C. The working solution: 1×2000 dilution of stock in blocking buffer. • Chemiluminescent working solution (Pierce, 37030): SuperSignal ELISA (enzyme linked immunosorbant assay) Pico Chemiluminescent substrate. • Crystal Violet solution: Stock: 2.5% Crystal violet in methanol, filtered and kept at ambient temperature. The working solution: dilute the stock 1:20 with PBS immediately before use. • 10% SDS: working solution: 5% SDS (sodium dodecylsulfate), diluted in PBS Methods: Day 1:
A 96 well TC (tissue culture treated) plate was coated with 10 μg/mL poly-L-Lysine at 37° C. for 30 min, washed twice with PBS, and air-dried for 5 minutes before cells were added. Hela cells were seeded at 10,000 cells/well and the cells were starved in 100 μL starvation medium containing Axl/Fc for 24 hrs.
The cells were pre-treated with test compounds by adding 100 μL of 2× test compound to the starvation medium on the cells. The cells were incubated at 37° C. for 1 hr before stimulation.
The cells were stimulated by Axl-antibody cross-linking as follows: A 5×1st/2nd Axl antibody mixture was made (37.5 μg/mL 1st/100 μg/mL 2nd) in starvation medium and nutated at 4° C. with thorough mixing for 1-2 hours for clustering. The resulting mix was warmed to 37° C. 50 μL of 5× Axl 1st/2nd of antibody cluster was added to the cells and the cells were incubated at 37° C. for 5 min.
After 5 minutes stimulation, the plate was flicked to remove medium and the plate was tapped onto paper towels. Formaldehyde (4.0% in PBS, 100 μL) was added to fix the cells and the cells were incubated at ambient temperature for 20 min without shaking.
The cells were washed with a plate washer buffer to remove the formaldehyde solution. The plate was flicked to removed excess wash buffer and tapped onto paper towels. Quenching buffer (100 μL) was added to each well and the cells were incubated at ambient temperature for 20 minutes without shaking.
The cells were washed with a plate washer buffer to remove the quenching buffer. Blocking buffer (100 μL) was added and the cells were incubated at ambient temperature for at least an hour with gentle shaking.
The cells were washed with a plate washer buffer and diluted primary antibody (50 μL) was added to each well (blocking buffer was added to the negative control wells instead). The plates were incubated overnight at 4° C. with gentle shaking.
The wash buffer was removed, diluted secondary antibody (100 μL) was added, and the cells were incubated at ambient temperature for 1 hour with gentle shaking. […]
In the case of `Nc1nc(Nc2ccc(OCCN3CCCC3)cc2)nn1-c1ncnc2c1C1CCC2C1` (centres unmarked) [Compound 19, 1-(5,8-methano-5,6,7,8-tetrahydroquinazolin-4-yl)-N^3-(4-(2-(pyrrolidin-1-yl)ethoxy)phenyl)-1H-1,2,4-triazole-3,5-diamine], the IC50 is < 1000 nM.
As to `CN1CCN(c2ccc(Nc3nc(N)n(-c4ncnc5c4C4CCC5C4)n3)cc2)CC1` (centres unmarked) [Compound 20, 1-(5,8-methano-5,6,7,8-tetrahydroquinazolin-4-yl)-N^3-(4-(4-methylpiperazin-1-yl)phenyl)-1H-1,2,4-triazole-3,5-diamine], the IC50 was < 1000 nM.
The same measure for `Cc1csc2c(-n3nc(Nc4cnc5c(c4)C4CCC(C5)N4C)nc3N)nc(Cl)nc12` (centres unmarked) [Compound 24, 1-(2-chloro-7-methylthieno[3,2-d]pyrimidin-4-yl)-N^3-(5,7-ethano-5,7,8-trihydro-6-methyl-1,6-naphthyridin-3-yl)-1H-1,2,4-triazole-3,5-diamine]: < 1000 nM; for `Nc1nc(Nc2ccc(N3CCC(N4CCCC4)CC3)c(F)c2)nn1-c1cc(-c2ccccc2)c2c(n1)C1CCN2CC1` [Compound 25, 1-(1,4-ethano-8-phenyl-1,2,3,4-tetrahydro-1,5-naphthyridin-6-yl)-N^3-(3-fluoro-4-(4-(pyrrolidin-1-yl)piperidin-1-yl)phenyl)-1H-1,2,4-triazole-3,5-diamine]: < 1000 nM.
The same measure for `Cc1csc2c(-n3nc(Nc4cnc5c(c4)C4CCC(C5)N4C)nc3N)ncnc12` (centres unmarked) [Compound 26, 1-(7-methylthieno[3,2-d]pyrimidin-4-yl)-N^3-(5,7-ethano-5,6,7,8-tetrahydro-6-methyl-1,6-naphthyridin-3-yl)-1H-1,2,4-triazole-3,5-diamine]: < 1000 nM.
The result for `Cc1csc2c(-n3nc(Nc4cnc5c(c4)CN4CCC5CC4)nc3N)ncnc12` [Compound 27, 1-(7-methylthieno[3,2-d]pyrimidin-4-yl)-N^3-(6,9-ethano-6,7,8,9-tetrahydro-5H-pyrido[3,2-c]azepin-3-yl)-1H-1,2,4-triazole-3,5-diamine] reads < 1000 nM; that for `CN1CCN(c2ccc(Nc3nc(N)n(-c4cc(-c5ccccc5)c5c(n4)C4CCN5CC4)n3)cn2)CC1` [Compound 28, 1-(1,4-ethano-8-phenyl-1,2,3,4-tetrahydro-1,5-naphthyridin-6-yl)-N^3-(2-(4-methylpiperazin-1-yl)pyridine-5-yl)-1H-1,2,4-triazole-3,5-diamine], < 1000 nM; that for `Nc1nc(Nc2ccc(N3CCC(N4CCCC4)CC3)nc2)nn1-c1cc(-c2ccccc2)c2c(n1)C1CCN2CC1` [Compound 29, 1-(1,4-ethano-8-phenyl-1,2,3,4-tetrahydro-1,5-naphthyridin-6-yl)-N^3-(2-(4-(pyrrolidin-1-yl)piperidin-1-yl)pyridine-5-yl)-1H-1,2,4-triazole-3,5-diamine], < 1000 nM.
In the case of `Nc1nc(Nc2ccc(N3CCC(N4CCCC4)CC3)c(F)c2)nn1-c1cc(-c2cccs2)c2c(n1)C1CCN2CC1` [Compound 30, 1-(1,4-ethano-8-thiophen-2-yl-1,2,3,4-tetrahydro-1,5-naphthyridin-6-yl)-N^3-(3-fluoro-4-(4-(pyrrolidin-1-yl)piperidin-1-yl)phenyl)-1H-1,2,4-triazole-3,5-diamine], the 50% inhibitory concentration (IC50) is < 1000 nM.
The same measure for `Nc1nc(Nc2ccc(N3CCC(N4CCCC4)CC3)c(F)c2)nn1-c1cc(-c2ccncc2)c2c(n1)C1CCN2CC1` [Compound 32, 1-(1,4-ethano-8-pyridin-4-yl-1,2,3,4-tetrahydro-1,5-naphthyridin-6-yl)-N^3-(3-fluoro-4-(4-(pyrrolidin-1-yl)piperidin-1-yl)phenyl)-1H-1,2,4-triazole-3,5-diamine]: < 1000 nM.
The result for `Nc1nc(Nc2ccc(N3CCNC(C(=O)O)C3)c(F)c2)nn1-c1cc(-c2ccccc2)c2c(n1)C1CCN2CC1` (centres unmarked) [Compound 33, 1-(1,4-ethano-8-phenyl-1,2,3,4-tetrahydro-1,5-naphthyridin-6-yl)-N^3-(3-fluoro-4-(3-carboxypiperazin-1-yl)phenyl)-1H-1,2,4-triazole-3,5-diamine] reads 1000 to 10000 nM.
